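Assay format: 96-well plates, 48-hour exposure. Here, GI50 denotes the concentration required for 50% inhibition of growth. TGI: concentration producing complete growth inhibition.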
What was measured:
Test in all cases: NCI-60 cell line screen, 48 h
[1] = tested on: HCT-15 colon
[2] = tested on: SN12C renal
[3] = tested on: HOP-62 NSCLC
[4] = tested on: PC-3 prostate
[5] = tested on: ACHN renal
[6] = tested on: RPMI-8226 leukemia
[7] = tested on: RXF 393 renal
[8] = tested on: MCF7 breast
[9] = tested on: SR leukemia
[10] = tested on: BT-549 breast

## COc1cc(OC)c(/C=C\c2ccnc3ccccc23)c(OC)c1
[1]
  TGI: 18.5 µM
[2]
  TGI: 16.3 µM
[3]
  TGI: 18.6 µM
[4]
  TGI: 23 µM
[5]
  TGI: 17.5 µM
[6]
  TGI: 13 µM
[7]
  TGI: 11.6 µM
[8]
  TGI: 21.4 µM
[9]
  TGI: 12.6 µM

## CCCCCCCCN(CCCCCCCC)CCCCCCNc1cc(OC)cc2cccnc12
[1]
  GI50: 7680 nM
  TGI: 24 µM
[10]
  GI50: 14700 nM
  TGI: 28 µM
[2]
  GI50: 2580 nM
  TGI: 6.9 µM
[3]
  GI50: 11100 nM
  TGI: 23.5 µM
[4]
  GI50: 4.18 µM
  TGI: 19 µM
[5]
  GI50: 11 µM
  TGI: 23.7 µM
[6]
  GI50: 7750 nM
  TGI: 75.4 µM
[7]
  GI50: 14200 nM
  TGI: 28.5 µM
[8]
  GI50: 3330 nM
  TGI: 12.4 µM
[9]
  GI50: 6700 nM
  TGI: 59.1 µM

## COc1cc2nc(SCC(=O)Nc3cc(OC)c(OC)c(OC)c3)n(Cc3ccccc3)c(=O)c2cc1OC
[1]
  GI50: > 100000 nM
  TGI: > 100 µM
[10]
  GI50: 2020 nM
  TGI: 5.61 µM
[2]
  GI50: 4700 nM
  TGI: > 100 µM
[3]
  GI50: 2030 nM
  TGI: 4.28 µM
[4]
  GI50: 3.2 µM
  TGI: > 100 µM
[5]
  GI50: 4.63 µM
  TGI: > 100 µM
[6]
  GI50: > 100000 nM
  TGI: > 100 µM
[7]
  GI50: 2550 nM
  TGI: 8.35 µM
[8]
  GI50: 7930 nM
  TGI: > 100 µM
[9]
  GI50: 40900 nM
  TGI: > 100 µM

## CCN1C(=O)N(CC)C2Nn3c(s/c(=C\c4ccccc4Br)c3=O)=NC21 (stereo not given)
[1]
  GI50: 1480 nM
  TGI: > 100 µM
[10]
  GI50: 3200 nM
  TGI: 17.4 µM
[2]
  GI50: 3170 nM
  TGI: 27.8 µM
[3]
  GI50: 2810 nM
  TGI: > 100 µM
[4]
  GI50: 1.86 µM
  TGI: > 100 µM
[5]
  GI50: 1.33 µM
  TGI: > 100 µM
[6]
  GI50: 1790 nM
  TGI: 15.2 µM
[7]
  GI50: 1090 nM
  TGI: 6.91 µM
[8]
  GI50: 1780 nM
  TGI: > 100 µM
[9]
  GI50: 573 nM
  TGI: 8.3 µM

## COc1ccc(C(SCC(N)C(=O)O)(c2ccccc2)c2ccccc2)cc1 (stereo not given)
[1]
  GI50: 451 nM
  TGI: > 72.2 µM
[10]
  GI50: 2720 nM
  TGI: > 100 µM
[2]
  GI50: 199 nM
  TGI: > 68.4 µM
[3]
  GI50: 392 nM
  TGI: > 84.5 µM
[4]
  GI50: 0.185 µM
  TGI: > 100 µM
[5]
  GI50: 3.73 µM
  TGI: > 100 µM
[6]
  GI50: 41.9 nM
  TGI: > 56.5 µM
[7]
  GI50: 190 nM
  TGI: > 100 µM
[8]
  GI50: 38.5 nM
  TGI: > 100 µM
[9]
  GI50: 3210 nM
  TGI: > 100 µM

## O=C1c2ccccc2S(=O)(=O)N1CSC(=S)N1CCCCC1
[1]
  GI50: > 100000 nM
  TGI: > 100 µM
[10]
  GI50: > 100000 nM
  TGI: > 100 µM
[2]
  GI50: > 46500 nM
  TGI: > 100 µM
[3]
  GI50: > 100000 nM
  TGI: > 100 µM
[5]
  GI50: > 100 µM
  TGI: > 100 µM
[6]
  GI50: 205 nM
  TGI: 0.607 µM
[7]
  GI50: > 100000 nM
  TGI: > 100 µM
[8]
  TGI: > 100 µM
[9]
  GI50: 266 nM
  TGI: > 100 µM

## NC1CCC(Nc2nc(NCc3ccc(-c4cccs4)nc3)c3ncn(C4CCCC4)c3n2)CC1 (stereo not given)
[1]
  GI50: 342 nM
  TGI: 5.36 µM
[10]
  GI50: 131 nM
  TGI: 0.626 µM
[2]
  GI50: 34.1 nM
  TGI: 1.81 µM
[3]
  GI50: 27.6 nM
  TGI: 0.0987 µM
[4]
  GI50: 0.0337 µM
  TGI: 1.04 µM
[5]
  GI50: 0.276 µM
  TGI: 1.01 µM
[6]
  GI50: 22.7 nM
  TGI: 0.137 µM
[7]
  GI50: 14.8 nM
  TGI: 0.0378 µM
[8]
  GI50: 30.1 nM
  TGI: 1.14 µM
[9]
  GI50: 32.8 nM
  TGI: 0.582 µM

## CN(Cc1cc(Br)cc(Br)c1O)Cc1cc(Br)cc(Br)c1O
[1]
  GI50: 558 nM
  TGI: 16.9 µM
[2]
  GI50: 2500 nM
  TGI: 16.7 µM
[3]
  GI50: 1740 nM
  TGI: 18.1 µM
[4]
  GI50: 4.37 µM
  TGI: 25 µM
[5]
  GI50: 1.63 µM
  TGI: 18.9 µM
[6]
  GI50: 2770 nM
  TGI: 47.9 µM
[7]
  GI50: 2650 nM
  TGI: 15.3 µM
[8]
  GI50: 2960 nM
  TGI: 15 µM
[9]
  GI50: 675 nM
  TGI: 28.3 µM

## Cc1ccc(-c2cc3c(SCC(=O)Nc4cc(C(F)(F)F)ccc4Cl)nccn3n2)cc1
[1]
  GI50: > 100000 nM
  TGI: > 100 µM
[10]
  GI50: > 100000 nM
  TGI: > 100 µM
[2]
  GI50: > 100000 nM
  TGI: > 100 µM
[3]
  GI50: 58200 nM
  TGI: > 100 µM
[4]
  GI50: > 100 µM
  TGI: > 100 µM
[5]
  GI50: 6.17 µM
  TGI: > 100 µM
[6]
  GI50: > 100000 nM
  TGI: > 100 µM
[7]
  GI50: > 100000 nM
  TGI: > 100 µM
[8]
  GI50: > 100000 nM
  TGI: > 100 µM
[9]
  GI50: > 100000 nM
  TGI: > 100 µM

## Clc1ccc2c(c1)N(c1ncnc3ccc(-c4cnc5[nH]ccc5c4)cc13)CC2
[1]
  GI50: 1060 nM
  TGI: 12.5 µM
[10]
  GI50: 949 nM
  TGI: 47.8 µM
[2]
  GI50: 1950 nM
  TGI: 20 µM
[3]
  GI50: 2450 nM
  TGI: 17.4 µM
[4]
  GI50: 2.28 µM
  TGI: 23.6 µM
[5]
  GI50: 2.12 µM
  TGI: 28.2 µM
[6]
  GI50: 766 nM
  TGI: > 100 µM
[7]
  GI50: 442 nM
  TGI: 12.2 µM
[8]
  GI50: 540 nM
  TGI: > 100 µM
[9]
  GI50: 595 nM
  TGI: > 100 µM

## O=[N+]([O-])c1ccc(Sc2ncnc3nc[nH]c23)c2nonc12
[1]
  GI50: 10500 nM
  TGI: 36.1 µM
[10]
  GI50: 10300 nM
  TGI: 27.4 µM
[2]
  GI50: 18100 nM
  TGI: 53.1 µM
[3]
  GI50: 4970 nM
  TGI: 20.7 µM
[4]
  GI50: 13.1 µM
  TGI: 30 µM
[5]
  GI50: 4.04 µM
  TGI: 16.1 µM
[6]
  GI50: 2920 nM
  TGI: 48 µM
[8]
  GI50: 1720 nM
  TGI: 12.2 µM
[9]
  GI50: 723 nM
  TGI: 13 µM

## Cc1ccc2ncnc(N(CC(C)C)CC(C)C)c2c1
[1]
  GI50: 17900 nM
  TGI: 34.6 µM
[2]
  GI50: 17900 nM
  TGI: 38.7 µM
[3]
  GI50: 15500 nM
  TGI: 31.2 µM
[4]
  GI50: 11 µM
  TGI: 27.8 µM
[5]
  GI50: 15.3 µM
  TGI: 31.5 µM
[6]
  GI50: 1610 nM
  TGI: 5.13 µM
[7]
  GI50: 11500 nM
  TGI: 27.7 µM
[8]
  GI50: 21500 nM
  TGI: > 100 µM
[9]
  GI50: 7760 nM
  TGI: 26.3 µM

## O=CNc1ncn[nH]1
[1]
  TGI: > 100 µM
[10]
  TGI: > 100 µM
[2]
  TGI: > 100 µM
[3]
  TGI: > 100 µM
[4]
  TGI: > 100 µM
[5]
  TGI: > 100 µM
[6]
  TGI: > 100 µM
[7]
  TGI: > 100 µM
[8]
  TGI: > 100 µM
[9]
  TGI: > 100 µM
